Measured values taken from PubChem BioAssay AID220 (DTP/NCI, 2004).
Where “and” joins values, the source holds several entries; their conditions need not be identical. Equal entries are not always repeated. Inconclusive results are not listed.

Test system: CD8F1 mice, subcutaneous mammary adenocarcinoma, T/C%
Assay: NCI In Vivo Anticancer Drug Screen. Data for tumor model Mammary Adenocarcinoma CD8F1 (subcutaneous) in CD8F1
Conditions: higher = larger tumour
Procedure, shortened: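 Antitumor activity is assessed in transplantable-tumor mice by comparing the treated group with a vehicle-treated control group. Survival or tumor size serves as the measure, reported as T divided by C.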

[1] = endpoint: median tumor weight (est.), dose: 25.0 mg/kg/injection, schedule: Q07DX005 (ip), vehicle: suspension in saline
[2] = endpoint: median tumor weight (est.), dose: 50.0 mg/kg/injection, schedule: Q07DX005 (ip), vehicle: suspension in saline
[3] = endpoint: median tumor weight (est.), dose: 100.0 mg/kg/injection, schedule: Q07DX005 (ip), vehicle: suspension in saline
[4] = endpoint: median tumor weight change, dose: 125.0 mg/kg/injection, schedule: Q01DX001 (ip), vehicle: saline with Tween-80
[5] = endpoint: median tumor weight change, dose: 250.0 mg/kg/injection, schedule: Q01DX001 (ip), vehicle: saline with Tween-80
[6] = endpoint: median tumor weight change, dose: 500.0 mg/kg/injection, schedule: Q01DX001 (ip), vehicle: saline with Tween-80
[7] = endpoint: median tumor weight change, dose: 31.25 mg/kg/injection, schedule: Q01DX001 (ip), vehicle: other
[8] = endpoint: median tumor weight change, dose: 62.5 mg/kg/injection, schedule: Q01DX001 (ip), vehicle: other

## Cc1cc(O)c(N=Nc2ccc(C(=O)O)cc2)cc1C
endpoint: mean tumor weight (est.), dose: 200.0 mg/kg/injection, schedule: Q07DX001 (ip), vehicle: carboxymethylcellulose (CMC)
  T/C: 82 % of control
endpoint: mean tumor weight (est.), dose: 400.0 mg/kg/injection, schedule: Q07DX001 (ip), vehicle: carboxymethylcellulose (CMC)
  T/C: 74 % of control
endpoint: mean tumor weight, dose: 100.0 mg/kg/injection, schedule: Q07DX007 (ip), vehicle: saline
  T/C: 106 % of control
endpoint: mean tumor weight, dose: 200.0 mg/kg/injection, schedule: Q07DX007 (ip), vehicle: saline
  T/C: 20 % of control
endpoint: mean tumor weight, dose: 400.0 mg/kg/injection, schedule: Q07DX007 (ip), vehicle: saline
  T/C: 35 % of control
[1]
  T/C: 98 % of control
[2]
  T/C: 90 % of control
[3]
  T/C: 98 % of control
endpoint: median tumor weight (est.), dose: 200.0 mg/kg/injection, schedule: Q07DX005 (ip), vehicle: suspension in saline
  T/C: 108 % of control
endpoint: median tumor weight (est.), dose: 400.0 mg/kg/injection, schedule: Q07DX005 (ip), vehicle: suspension in saline
  T/C: 98 % of control

## [Cl][Pt+2][Cl].[NH-]CC1(C[NH-])CCC1
endpoint: median tumor weight change, dose: 12.5 mg/kg/injection, schedule: Q01DX001 (ip), vehicle: suspension in saline
  T/C: 79 % of control

## CC(=O)OCC1OC(OC(C)=O)C(NC(=O)N(CCCl)N=O)C(OC(C)=O)C1OC(C)=O (centres undefined)
endpoint: median tumor weight (est.), dose: 1.5 mg/kg/injection, schedule: Q07DX005 (ip), vehicle: Klucel (hydroxypropylcellulose) (HPC)
  T/C: 61 % of control
endpoint: median tumor weight (est.), dose: 3.0 mg/kg/injection, schedule: Q07DX005 (ip), vehicle: Klucel (hydroxypropylcellulose) (HPC)
  T/C: 41 % of control and 63 % of control and 66 % of control

## C=C(C)[C@]12CC(C)C34OC(/C=C\C=C\CCCCCCCCC)(O[C@@H]1[C@@H]3[C@@H]1O[C@]1(CO)[C@@H](O)[C@]1(O)C(=O)C(C)=C[C@@H]41)O2 (some centres undefined)
endpoint: median tumor weight (est.), dose: 0.37 mg/kg/injection, schedule: Q07DX002 (ip), vehicle: saline + alcohol
  T/C: 110 % of control
endpoint: median tumor weight (est.), dose: 0.37 mg/kg/injection, schedule: Q07DX005 (ip), vehicle: saline + alcohol
  T/C: 82 % of control
endpoint: median tumor weight (est.), dose: 0.75 mg/kg/injection, schedule: Q07DX002 (ip), vehicle: saline + alcohol
  T/C: 121 % of control
endpoint: median tumor weight (est.), dose: 0.75 mg/kg/injection, schedule: Q07DX005 (ip), vehicle: saline + alcohol
  T/C: 116 % of control
endpoint: median tumor weight (est.), dose: 1.5 mg/kg/injection, schedule: Q07DX002 (ip), vehicle: saline + alcohol
  T/C: 201 % of control
endpoint: median tumor weight (est.), dose: 1.5 mg/kg/injection, schedule: Q07DX005 (ip), vehicle: saline + alcohol
  T/C: 72 % of control

## O=C(Nc1ccccc1C(=O)O)c1cc([N+](=O)[O-])cc([N+](=O)[O-])c1
[4]
  T/C: 192 % of control
[5]
  T/C: 117 % of control

## Cc1cc(NCCCN(C)C)c2ccc3c(ccc4c(NCCCN(C)C)cc(C)nc43)c2n1
endpoint: median tumor weight change, dose: 3.9 mg/kg/injection, schedule: Q01DX001 (ip), vehicle: saline
  T/C: 87 % of control
endpoint: median tumor weight change, dose: 7.81 mg/kg/injection, schedule: Q01DX001 (ip), vehicle: saline
  T/C: 98 % of control

## c1ccc2sc(SSN3CC4CCC(CC4)C3)nc2c1
endpoint: median tumor weight (est.), dose: 12.5 mg/kg/injection, schedule: Q07DX005 (ip), vehicle: saline with Tween-80
  T/C: 26 % of control
endpoint: median tumor weight (est.), dose: 25.0 mg/kg/injection, schedule: Q07DX005 (ip), vehicle: saline with Tween-80
  T/C: 33 % of control
endpoint: median tumor weight (est.), dose: 50.0 mg/kg/injection, schedule: Q07DX005 (ip), vehicle: saline with Tween-80
  T/C: 101 % of control
endpoint: median tumor weight (est.), dose: 100.0 mg/kg/injection, schedule: Q07DX005 (ip), vehicle: saline with Tween-80
  T/C: 81 % of control
endpoint: median tumor weight (est.), dose: 200.0 mg/kg/injection, schedule: Q07DX005 (ip), vehicle: saline with Tween-80
  T/C: 62 % of control
endpoint: median tumor weight (est.), dose: 400.0 mg/kg/injection, schedule: Q07DX005 (ip), vehicle: saline with Tween-80
  T/C: 53 % of control

## C/C(=N\NC(=S)N1CCN(c2ccccn2)CC1)c1ccccn1
endpoint: median tumor weight change, dose: 12.5 mg/kg/injection, schedule: Q01DX001 (ip), vehicle: other
  T/C: 74 % of control
endpoint: median tumor weight change, dose: 25.0 mg/kg/injection, schedule: Q01DX001 (ip), vehicle: other
  T/C: 76 % of control
endpoint: median tumor weight change, dose: 50.0 mg/kg/injection, schedule: Q01DX001 (ip), vehicle: other
  T/C: 87 % of control

## COc1ccc([C@@]23Oc4cc(OC)cc(OC)c4[C@]2(O)[C@H](O)[C@H](C(=O)N(C)C)[C@H]3c2ccccc2)cc1
endpoint: median tumor weight change, dose: 2.5 mg/kg/injection, schedule: Q01DX001 (ip), vehicle: Klucel (hydroxypropylcellulose) (HPC)
  T/C: 212 % of control
endpoint: median tumor weight change, dose: 5.0 mg/kg/injection, schedule: Q01DX001 (ip), vehicle: Klucel (hydroxypropylcellulose) (HPC)
  T/C: 105 % of control
endpoint: median tumor weight change, dose: 10.0 mg/kg/injection, schedule: Q01DX001 (ip), vehicle: Klucel (hydroxypropylcellulose) (HPC)
  T/C: 72 % of control

## CC(C)CCC(=O)c1ccoc1
endpoint: median tumor weight change, dose: 0.31 mg/kg/injection, schedule: Q03HX003 (ip), vehicle: saline with Tween-80
  T/C: 90 % of control
endpoint: median tumor weight change, dose: 0.62 mg/kg/injection, schedule: Q03HX003 (ip), vehicle: saline with Tween-80
  T/C: 102 % of control
endpoint: median tumor weight change, dose: 1.25 mg/kg/injection, schedule: Q03HX003 (ip), vehicle: saline with Tween-80
  T/C: 103 % of control

## CCCCCC(O)C1C(=O)OC(C)C(O)/C=C/C=C/C=C/C=C\C=C(\C)C(O)CC(O)CC(O)CC(O)CC(O)CC(O)CC1O (centres undefined)
endpoint: median tumor weight change, dose: 62.5 mg/kg/injection, schedule: Q01DX001 (ip), vehicle: distilled water + Tween-80
  T/C: 150 % of control

## Nc1nc(N)c2c(ccc3c2ccn3Cc2cccc([N+](=O)[O-])c2)n1
endpoint: median tumor weight change, dose: 7.75 mg/kg/injection, schedule: Q01DX001 (ip), vehicle: saline with Tween-80
  T/C: 66 % of control
endpoint: median tumor weight change, dose: 8.0 mg/kg/injection, schedule: Q01DX001 (ip), vehicle: saline with Tween-80
  T/C: 56 % of control
endpoint: median tumor weight change, dose: 16.0 mg/kg/injection, schedule: Q01DX001 (ip), vehicle: saline with Tween-80
  T/C: 67 % of control

## O=CC(=O)c1ccc(O)cc1
endpoint: median tumor weight (est.), dose: 12.5 mg/kg/injection, schedule: Q07DX005 (ip), vehicle: suspension in saline
  T/C: 102 % of control
[1]
  T/C: 111 % of control
[2]
  T/C: 123 % of control
[3]
  T/C: 114 % of control

## CC1(C)CC2(C)OC2C2(C1)N=NC(=Nc1ccccc1)O2 (centres undefined)
[4]
  T/C: 78 % of control
[5]
  T/C: 64 % of control
[6]
  T/C: 41 % of control

## CO[C@@]12[C@H](COC(N)=O)C3=C(C(=O)C(C)=C(N)C3=O)N1C[C@@H]1N[C@@H]12
endpoint: median tumor weight (est.), dose: 0.37 mg/kg/injection, schedule: Q07DX006 (ip), vehicle: saline
  T/C: 63 % of control
endpoint: median tumor weight (est.), dose: 0.75 mg/kg/injection, schedule: Q07DX006 (ip), vehicle: saline
  T/C: 47 % of control
endpoint: median tumor weight (est.), dose: 1.5 mg/kg/injection, schedule: Q07DX006 (ip), vehicle: saline
  T/C: 27 % of control

## COc1cc2cc(c1Cl)N(C)C(=O)CC(OC(=O)C(C)N(C)C(=O)C(C)C)C1(C)OC1C(C)C1CC(O)(NC(=O)O1)C(OC)/C=C/C=C(C)C2OC (centres undefined)
endpoint: median tumor weight change, dose: 16.0 micrograms/kg/injection, schedule: Q01DX001 (ip), vehicle: Klucel (hydroxypropylcellulose) (HPC)
  T/C: 73 % of control
endpoint: median tumor weight change, dose: 32.0 micrograms/kg/injection, schedule: Q01DX001 (ip), vehicle: Klucel (hydroxypropylcellulose) (HPC)
  T/C: 124 % of control
endpoint: median tumor weight change, dose: 64.0 micrograms/kg/injection, schedule: Q01DX001 (ip), vehicle: Klucel (hydroxypropylcellulose) (HPC)
  T/C: 82 % of control
endpoint: median tumor weight change, dose: 128.0 micrograms/kg/injection, schedule: Q01DX001 (ip), vehicle: Klucel (hydroxypropylcellulose) (HPC)
  T/C: 80 % of control
endpoint: median tumor weight change, dose: 256.0 micrograms/kg/injection, schedule: Q01DX001 (ip), vehicle: Klucel (hydroxypropylcellulose) (HPC)
  T/C: 64 % of control

## COc1ccc(OC)c(Cc2cnc3nc(N)nc(N)c3c2C)c1
[7]
  T/C: 47 % of control
[8]
  T/C: 64 % of control

## CO[C@@]12[C@@H]3N[C@@H]3CN1C1=C(C(=O)C(NCC3CCCO3)=C(C)C1=O)[C@@H]2COC(N)=O (some centres undefined)
endpoint: median tumor weight change, dose: 6.25 mg/kg/injection, schedule: Q01DX001 (ip), vehicle: distilled water + Tween-80
  T/C: 44 % of control

## Cn1c(=O)[nH]c2nncnc2c1=O
endpoint: median tumor weight change, dose: 15.62 mg/kg/injection, schedule: Q01DX001 (ip), vehicle: other
  T/C: 89 % of control
[7]
  T/C: 88 % of control
[8]
  T/C: 57 % of control

## Cc1c2ccccc2cc2cccc[n+]12
endpoint: median tumor weight change, dose: 20.0 mg/kg/injection, schedule: Q01DX001 (ip), vehicle: saline
  T/C: 116 % of control
endpoint: median tumor weight change, dose: 25.0 mg/kg/injection, schedule: Q01DX001 (ip), vehicle: saline
  T/C: 123 % of control
endpoint: median tumor weight change, dose: 40.0 mg/kg/injection, schedule: Q01DX001 (ip), vehicle: saline
  T/C: 119 % of control
endpoint: median tumor weight change, dose: 50.0 mg/kg/injection, schedule: Q01DX001 (ip), vehicle: saline
  T/C: 59 % of control

## CN(C)C1C(=O)C(C(=O)NP(=O)(NCCCO)N(CCCl)CCCl)=C(O)C2(O)C(=O)C3=C(O)c4c(O)cccc4C(C)(O)C3CC12 (centres undefined)
[5]
  T/C: 46 % of control and 69 % of control
[6]
  T/C: 21 % of control
